Test results reported in ChEMBL document CHEMBL2390917, “Synthesis and biological evaluation of 2-(5-methyl-4-phenyl-2-oxopyrrolidin-1-yl)-acetamide stereoisomers as novel positive allosteric modulators of sigma-1 receptor” (Bioorg Med Chem, 2013).
Active and inactive are the calls of the source. No cut-off for these calls is given here.

Tests used:
[1] = tested on: Mus musculus; assay: Toxicity in ICR mouse assessed as effect on locomotor activity measured moved distance per 4 mins at 10 mg/kg, ip after 30 mins by open field test (reference value: 1124 121 cm); assay type: organism-based; design: dose 10 mg/kg, route intraperitoneal; conditions: in vivo
[2] = target: Nociceptin receptor (Homo sapiens) (UniProt P41146); assay: Binding affinity to ORL1 receptor (unknown origin) at 10 uM by radioligand displacement assay relative to control
Sequence of Nociceptin receptor (Homo sapiens) (P41146 whole entry): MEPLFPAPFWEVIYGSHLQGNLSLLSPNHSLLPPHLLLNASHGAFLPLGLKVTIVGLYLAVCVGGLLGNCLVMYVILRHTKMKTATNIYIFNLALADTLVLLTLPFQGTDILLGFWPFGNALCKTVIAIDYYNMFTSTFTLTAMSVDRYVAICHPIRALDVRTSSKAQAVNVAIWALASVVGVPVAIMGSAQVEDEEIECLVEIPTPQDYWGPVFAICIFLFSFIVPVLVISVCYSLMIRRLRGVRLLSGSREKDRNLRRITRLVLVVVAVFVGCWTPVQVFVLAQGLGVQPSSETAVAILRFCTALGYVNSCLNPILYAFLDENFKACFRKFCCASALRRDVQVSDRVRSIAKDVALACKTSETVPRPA

[3] = species: Homo sapiens; assay: Binding affinity to bombesin receptor (unknown origin) at 10 uM by radioligand displacement assay relative to control
[4] = species: Homo sapiens; assay: Binding affinity to P2Y receptor (unknown origin) at 10 uM by radioligand displacement assay relative to control
[5] = target: Histamine H1 receptor (Homo sapiens) (UniProt P35367); assay: Binding affinity to human histamine H1 receptor at 10 uM by radioligand displacement assay relative to control
Sequence of Histamine H1 receptor (Homo sapiens) (P35367 whole entry): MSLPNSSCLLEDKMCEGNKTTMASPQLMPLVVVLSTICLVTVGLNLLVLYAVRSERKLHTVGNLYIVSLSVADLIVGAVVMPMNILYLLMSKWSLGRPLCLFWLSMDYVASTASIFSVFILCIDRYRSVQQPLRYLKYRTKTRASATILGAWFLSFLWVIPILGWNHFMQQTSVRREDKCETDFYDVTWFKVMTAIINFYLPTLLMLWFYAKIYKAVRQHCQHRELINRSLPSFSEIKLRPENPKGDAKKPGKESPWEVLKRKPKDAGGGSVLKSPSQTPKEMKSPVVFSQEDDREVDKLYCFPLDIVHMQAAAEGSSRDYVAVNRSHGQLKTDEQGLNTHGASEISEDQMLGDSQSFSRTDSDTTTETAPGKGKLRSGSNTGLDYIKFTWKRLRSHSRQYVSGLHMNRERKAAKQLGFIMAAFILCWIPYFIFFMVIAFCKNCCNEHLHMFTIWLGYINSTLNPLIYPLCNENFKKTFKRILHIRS

[6] = target: Mu-type opioid receptor (Homo sapiens) (UniProt P35372); assay: Binding affinity to mu opioid receptor (unknown origin) at 10 uM by radioligand displacement assay relative to control
Sequence of Mu-type opioid receptor (Homo sapiens) (P35372 whole entry): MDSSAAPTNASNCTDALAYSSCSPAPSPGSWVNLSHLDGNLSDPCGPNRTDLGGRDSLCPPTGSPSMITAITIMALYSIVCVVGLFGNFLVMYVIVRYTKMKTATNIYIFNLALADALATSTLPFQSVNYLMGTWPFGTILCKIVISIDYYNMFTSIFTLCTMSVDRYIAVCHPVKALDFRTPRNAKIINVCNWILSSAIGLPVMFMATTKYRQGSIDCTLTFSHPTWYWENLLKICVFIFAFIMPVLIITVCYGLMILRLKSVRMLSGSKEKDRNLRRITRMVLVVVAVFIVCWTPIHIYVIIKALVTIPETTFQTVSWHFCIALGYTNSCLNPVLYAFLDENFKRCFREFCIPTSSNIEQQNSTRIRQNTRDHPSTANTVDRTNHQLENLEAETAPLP

[7] = tested on: Mus musculus; assay: Toxicity in ICR mouse assessed as effect on locomotor activity measured moved distance per 4 mins at 100 mg/kg, ip after 240 mins by open field test (reference value: 398 70 cm); assay type: organism-based; design: dose 100 mg/kg, route intraperitoneal; conditions: in vivo
[8] = target: Type-2 angiotensin II receptor (Homo sapiens) (UniProt P50052); assay: Binding affinity to human angiotensin AT2 receptor at 10 uM by radioligand displacement assay relative to control
Sequence of Type-2 angiotensin II receptor (Homo sapiens) (P50052 whole entry): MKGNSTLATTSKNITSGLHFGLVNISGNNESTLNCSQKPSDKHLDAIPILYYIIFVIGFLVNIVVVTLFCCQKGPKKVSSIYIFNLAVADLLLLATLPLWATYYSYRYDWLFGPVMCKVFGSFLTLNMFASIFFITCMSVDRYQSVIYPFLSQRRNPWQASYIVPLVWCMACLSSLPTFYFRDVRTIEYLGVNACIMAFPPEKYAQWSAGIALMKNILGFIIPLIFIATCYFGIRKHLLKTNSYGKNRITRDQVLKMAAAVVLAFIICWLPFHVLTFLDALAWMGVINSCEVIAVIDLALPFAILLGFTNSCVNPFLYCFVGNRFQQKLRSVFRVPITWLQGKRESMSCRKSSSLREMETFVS

[9] = species: Homo sapiens; assay: Binding affinity to human TNFalpha receptor at 10 uM by radioligand displacement assay relative to control
[10] = target: Adrenergic receptor alpha-1 (Homo sapiens) (UniProt P35348+P25100+P35368); assay: Binding affinity to human adrenergic alpha1 receptor at 10 uM by radioligand displacement assay relative to control
[11] = target: Sodium-dependent serotonin transporter (Homo sapiens) (UniProt P31645); assay: Binding affinity to human serotonin 5-HT transporter at 10 uM by radioligand displacement assay relative to control
Sequence of Sodium-dependent serotonin transporter (Homo sapiens) (P31645 whole entry, looked up): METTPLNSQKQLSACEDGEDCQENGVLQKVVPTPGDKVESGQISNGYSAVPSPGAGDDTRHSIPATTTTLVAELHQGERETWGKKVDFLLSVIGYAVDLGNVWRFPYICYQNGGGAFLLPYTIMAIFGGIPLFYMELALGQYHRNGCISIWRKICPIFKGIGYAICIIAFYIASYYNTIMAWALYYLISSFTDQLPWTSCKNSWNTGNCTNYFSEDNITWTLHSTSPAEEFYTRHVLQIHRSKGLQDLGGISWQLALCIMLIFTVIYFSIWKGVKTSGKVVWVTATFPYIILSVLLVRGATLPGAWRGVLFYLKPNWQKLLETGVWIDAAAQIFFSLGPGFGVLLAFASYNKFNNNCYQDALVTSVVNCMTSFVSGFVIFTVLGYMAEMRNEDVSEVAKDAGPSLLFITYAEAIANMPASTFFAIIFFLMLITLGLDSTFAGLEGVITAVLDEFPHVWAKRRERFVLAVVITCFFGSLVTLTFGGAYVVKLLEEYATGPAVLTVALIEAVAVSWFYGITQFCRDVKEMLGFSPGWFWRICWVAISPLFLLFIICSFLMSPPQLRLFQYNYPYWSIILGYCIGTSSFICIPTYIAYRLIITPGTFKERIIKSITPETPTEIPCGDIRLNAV

[12] = target: Alpha-2A adrenergic receptor (Homo sapiens) (UniProt P08913); assay: Binding affinity to adrenergic alpha2 receptor (unknown origin) at 10 uM by radioligand displacement assay relative to control
Sequence of Alpha-2A adrenergic receptor (Homo sapiens) (P08913 whole entry): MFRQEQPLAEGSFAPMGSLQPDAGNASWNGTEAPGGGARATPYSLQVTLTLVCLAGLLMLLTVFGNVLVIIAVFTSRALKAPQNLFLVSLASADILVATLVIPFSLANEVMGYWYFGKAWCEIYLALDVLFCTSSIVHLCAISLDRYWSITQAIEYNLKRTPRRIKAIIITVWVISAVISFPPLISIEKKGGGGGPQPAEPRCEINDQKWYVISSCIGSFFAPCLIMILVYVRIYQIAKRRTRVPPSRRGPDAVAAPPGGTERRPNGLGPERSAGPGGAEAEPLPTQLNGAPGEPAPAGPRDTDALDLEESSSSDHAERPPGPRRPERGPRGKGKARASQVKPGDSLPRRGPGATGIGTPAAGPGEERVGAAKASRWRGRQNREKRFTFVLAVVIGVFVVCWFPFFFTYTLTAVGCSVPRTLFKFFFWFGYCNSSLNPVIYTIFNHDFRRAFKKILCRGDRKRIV

[13] = target: 5-hydroxytryptamine receptor 2A (Homo sapiens) (UniProt P28223); assay: Binding affinity to human 5-HT2A receptor at 10 uM by radioligand displacement assay relative to control
Sequence of 5-hydroxytryptamine receptor 2A (Homo sapiens) (P28223 whole entry): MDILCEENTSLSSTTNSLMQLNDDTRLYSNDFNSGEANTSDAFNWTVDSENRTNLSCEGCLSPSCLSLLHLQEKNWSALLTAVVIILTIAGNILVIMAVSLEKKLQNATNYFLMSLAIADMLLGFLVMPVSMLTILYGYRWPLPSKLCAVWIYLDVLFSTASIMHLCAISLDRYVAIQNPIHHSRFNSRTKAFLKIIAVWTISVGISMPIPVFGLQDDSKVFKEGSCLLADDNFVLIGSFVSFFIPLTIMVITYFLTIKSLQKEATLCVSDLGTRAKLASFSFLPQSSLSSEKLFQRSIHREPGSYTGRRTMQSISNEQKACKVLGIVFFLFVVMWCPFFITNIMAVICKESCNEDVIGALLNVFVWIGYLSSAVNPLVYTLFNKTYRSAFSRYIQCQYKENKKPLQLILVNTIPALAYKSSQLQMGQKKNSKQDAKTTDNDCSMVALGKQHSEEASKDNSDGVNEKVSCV

[14] = tested on: Mus musculus; assay: Toxicity in ICR mouse assessed as effect on locomotor activity measured moved distance per 4 mins at 100 mg/kg, ip after 120 mins by open field test (reference value: 578 126 cm); assay type: organism-based; design: dose 100 mg/kg, route intraperitoneal; conditions: in vivo
[15] = target: Gastrin/cholecystokinin type B receptor (Homo sapiens) (UniProt P32239); assay: Binding affinity to human CCK2 receptor at 10 uM by radioligand displacement assay relative to control
Sequence of Gastrin/cholecystokinin type B receptor (Homo sapiens) (P32239 whole entry): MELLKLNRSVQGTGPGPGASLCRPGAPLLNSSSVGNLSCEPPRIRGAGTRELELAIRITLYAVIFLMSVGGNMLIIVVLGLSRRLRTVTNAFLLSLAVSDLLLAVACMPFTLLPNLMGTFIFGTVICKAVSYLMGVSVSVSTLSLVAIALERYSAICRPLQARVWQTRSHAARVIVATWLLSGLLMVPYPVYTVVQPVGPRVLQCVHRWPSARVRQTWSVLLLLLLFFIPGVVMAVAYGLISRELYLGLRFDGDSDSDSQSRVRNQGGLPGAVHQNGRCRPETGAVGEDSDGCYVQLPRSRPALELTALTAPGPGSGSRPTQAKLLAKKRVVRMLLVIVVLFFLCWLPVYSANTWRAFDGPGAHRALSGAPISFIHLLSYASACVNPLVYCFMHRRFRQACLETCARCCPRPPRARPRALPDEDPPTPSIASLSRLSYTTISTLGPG

[16] = target: D(4) dopamine receptor (Homo sapiens) (UniProt P21917); assay: Binding affinity to human dopamine D4.4 receptor at 10 uM by radioligand displacement assay relative to control
Sequence of D(4) dopamine receptor (Homo sapiens) (P21917 whole entry): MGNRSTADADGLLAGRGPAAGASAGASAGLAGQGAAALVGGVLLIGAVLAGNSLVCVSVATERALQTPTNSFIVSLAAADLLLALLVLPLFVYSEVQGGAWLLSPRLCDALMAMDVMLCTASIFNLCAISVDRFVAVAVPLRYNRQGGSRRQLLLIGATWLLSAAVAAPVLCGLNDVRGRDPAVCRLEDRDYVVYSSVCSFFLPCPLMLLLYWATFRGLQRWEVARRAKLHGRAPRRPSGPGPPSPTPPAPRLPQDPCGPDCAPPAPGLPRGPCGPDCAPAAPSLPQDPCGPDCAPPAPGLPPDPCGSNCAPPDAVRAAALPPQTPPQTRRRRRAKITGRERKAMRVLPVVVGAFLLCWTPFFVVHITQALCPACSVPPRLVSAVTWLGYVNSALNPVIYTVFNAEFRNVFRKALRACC

[17] = target: Sigma non-opioid intracellular receptor 1 (Rattus norvegicus) (UniProt Q9R0C9); assay: Positive allosteric modulation of Wistar rat sigma 1 receptor assessed as potentiation of PB-28 effect on electrically-stimulated vas deferens contraction at 10 uM preincubated for 10 mins followed by PB-28 addition
Sequence of Sigma non-opioid intracellular receptor 1 (Rattus norvegicus) (Q9R0C9 whole entry): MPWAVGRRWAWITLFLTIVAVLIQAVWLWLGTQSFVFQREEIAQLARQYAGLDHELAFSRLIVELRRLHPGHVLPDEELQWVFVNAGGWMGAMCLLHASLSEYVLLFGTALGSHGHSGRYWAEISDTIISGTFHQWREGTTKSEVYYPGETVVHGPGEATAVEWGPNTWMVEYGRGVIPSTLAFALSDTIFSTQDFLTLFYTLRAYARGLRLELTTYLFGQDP

[18] = species: Homo sapiens; assay: Binding affinity to GABA-gated chloride channel (unknown origin) at 10 uM by radioligand displacement assay relative to control
[19] = tested on: Mus musculus; assay: Toxicity in ICR mouse assessed as effect on locomotor activity measured moved distance per 4 mins at 100 mg/kg, ip after 30 mins by open field test (reference value: 1124 121 cm); assay type: organism-based; design: dose 100 mg/kg, route intraperitoneal; conditions: in vivo
[20] = tested on: Mus musculus; assay: Toxicity in ICR mouse assessed as effect on locomotor activity measured moved distance per 4 mins at 1 mg/kg, ip after 240 mins by open field test (reference value: 398 70 cm); assay type: organism-based; design: dose 1 mg/kg, route intraperitoneal; conditions: in vivo
[21] = target: C-C chemokine receptor type 1 (Homo sapiens) (UniProt P32246); assay: Binding affinity to human CCR1 at 10 uM by radioligand displacement assay relative to control
[22] = target: Adrenergic receptor alpha-2 (Homo sapiens) (UniProt P08913+P18825+P18089); assay: Binding affinity to human adrenergic alpha2 receptor at 10 uM by radioligand displacement assay relative to control
[23] = target: 5-hydroxytryptamine receptor 2C (Homo sapiens) (UniProt P28335); assay: Binding affinity to human 5-HT2C receptor at 10 uM by radioligand displacement assay relative to control
Sequence of 5-hydroxytryptamine receptor 2C (Homo sapiens) (P28335 whole entry): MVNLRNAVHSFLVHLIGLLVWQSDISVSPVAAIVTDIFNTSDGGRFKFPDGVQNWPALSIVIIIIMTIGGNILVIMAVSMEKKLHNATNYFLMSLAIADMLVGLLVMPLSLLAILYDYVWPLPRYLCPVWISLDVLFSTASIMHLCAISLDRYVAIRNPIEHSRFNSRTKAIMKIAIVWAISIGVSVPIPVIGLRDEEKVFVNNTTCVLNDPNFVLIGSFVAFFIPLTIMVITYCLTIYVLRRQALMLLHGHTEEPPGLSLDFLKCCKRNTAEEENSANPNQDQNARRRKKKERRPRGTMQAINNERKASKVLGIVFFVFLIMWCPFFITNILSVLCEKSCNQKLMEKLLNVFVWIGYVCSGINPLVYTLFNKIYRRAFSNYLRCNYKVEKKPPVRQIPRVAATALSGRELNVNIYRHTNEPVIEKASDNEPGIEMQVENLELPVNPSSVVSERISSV

## C[C@H]1[C@@H](c2ccccc2)CC(=O)N1CC(N)=O
[1]
  Activity: 1026 cm
[2]
  inhibition: 4%
[3]
  inhibition: -5%
[4]
  inhibition: -4%
[5]
  inhibition: -7%
[6]
  inhibition: -7%
[7]
  Activity: 458 cm
[8]
  inhibition: -5%
[9]
  inhibition: -3%
[10]
  inhibition: -5%
[11]
  inhibition: 5%
[12]
  inhibition: -4%
[13]
  inhibition: 5%
[14]
  Activity: 470 cm
[15]
  inhibition: 8%
[16]
  inhibition: -3%
[17]
  Activity: inactive
[18]
  inhibition: -3%
[19]
  Activity: 1076 cm
[20]
  Activity: 626 cm
[21]
  inhibition: -5%
[22]
  inhibition: -2%
[23]
  inhibition: -2%
